Laboratory results as given in ChEMBL document CHEMBL3856210, “Discovery of in vitro antitubercular agents through in silico ligand-based approaches” (Eur J Med Chem, 2016).
Values after ≈ are worked out from the molar mass of the structure shown.

Test: Antitubercular activity against Mycobacterium tuberculosis H37Ra ATCC 25177 after 21 days by agar dilution method
Format: functional
Conditions: ATCC 25177, 504 h

`O=C(O[C@H](Cn1ccnc1)c1ccc(Cl)cc1)c1cccc(C(F)(F)F)c1` gave an MIC of 16 µg/mL (≈ 40.5 µM).
`O=C(O[C@H](Cn1ccnc1)c1ccccc1)N1CCN(c2ccc(Cl)c(Cl)c2)CC1` gave an MIC of 16 µg/mL (≈ 35.9 µM).
`CO/N=C(\c1ccc(Cl)cc1)c1c(C)nn(-c2ccc(Cl)cc2)c1O` showed an MIC of 25 µg/mL (≈ 66.4 µM).
`CC1=NN(c2ccccc2)C(=O)/C1=C(/c1ccc(Cl)cc1)N(C)C` gave an MIC of 32 µg/mL (≈ 94.2 µM).
`O=C(c1ccc(Cl)cc1)c1c(C(F)(F)F)[nH]n(-c2ccc(Cl)cc2)c1=O` showed an MIC of over 64 µg/mL.
`O=C(OC(Cc1ccccc1)c1ccc(Cl)cc1)N1CCN(c2ccc(Cl)c(Cl)c2)CC1` (racemic) showed an MIC of 64 µg/mL (≈ 131 µM).
In the case of `C/C(=N\OC(=O)COc1ccc(Cl)cc1Cl)c1ccc(Br)cc1`, the MIC is reported as 32 µg/mL (≈ 76.7 µM).
`CC1=NN(c2ccc(Cl)cc2)C(=O)/C1=C\Nc1ccccc1` showed an MIC of 64 µg/mL (≈ 205 µM).
With `CC1=NN(c2ccc(Cl)cc2)C(=O)/C1=C\N1CCOCC1` the MIC was 64 µg/mL (≈ 209 µM).
In the case of `Cc1nn(-c2ccccc2)c(O)c1C(=O)/C=C/c1ccccc1`, the MIC is reported as 50 µg/mL (≈ 164 µM).
With `O=C(C1=C(O)C(=O)N(c2ccccc2)C1c1ccccc1F)c1ccc(Cl)cc1` (configuration not stated) the MIC was 32 µg/mL (≈ 78.5 µM).
In the case of `CCOc1ccc(NC(=O)C(Cc2ccccc2)N2C(=O)c3ccccc3C2=O)cc1` (configuration not stated), the MIC is reported as 32 µg/mL (≈ 77.2 µM).
For `Cc1n[nH]c(C)c1CCc1cc(=O)n2nc(C)c(-c3ccc(Cl)cc3)c2[nH]1`, the MIC was 8 µg/mL (≈ 20.9 µM).
For `CCCc1cc(=O)n2nc(C)c(-c3ccc(OC)cc3)c2[nH]1`, the MIC was 32 µg/mL (≈ 108 µM).
In the case of `CC1=NN(c2ccc(Cl)cc2)C(=O)/C1=C(/c1ccc(Cl)cc1)N1CCCCC1`, the MIC is reported as over 64 µg/mL.
With `Cc1ccc(C2NC(=O)NC(O)(C(F)(F)F)C2C(=O)c2ccc(Cl)cc2)cc1` (configuration not stated) the MIC was 32 µg/mL (≈ 77.5 µM).
`Cc1c(C(=O)c2ccc(Cl)cc2)c(=O)n(-c2ccc(Cl)cc2)n1Cc1ccc(F)cc1` gave an MIC of 32 µg/mL (≈ 70.3 µM).
With `Cc1[nH]n(-c2ccccc2)c(=O)c1C(=O)c1cccc(F)c1` the MIC was 25 µg/mL (≈ 84.4 µM).
With `Cc1ccccc1C(=O)c1c(C)nn(-c2ccccc2)c1O` the MIC was 50 µg/mL (≈ 171 µM).
`CC(C)c1[nH]n(-c2ccc(Cl)cc2)c(=O)c1C(=O)c1ccc(Cl)cc1` showed an MIC of 32 µg/mL (≈ 85.3 µM).
`Cc1ccc(-n2c(C)cc(/C=N\OCc3ccccc3)c2C)cc1` showed an MIC of over 100 µg/mL.
With `COc1ccc(CO/N=C\c2cc(C)n(-c3ccc(F)cc3)c2C)cc1` the MIC was over 100 µg/mL.
Work on `COc1ccc(-n2c(SC)nnc2-c2ccc(Cl)cc2)c(OC)c1` yielded an MIC of 32 µg/mL (≈ 88.4 µM).
Molecule `CCN(Cc1cc2cc(C)c(C)cc2[nH]c1=O)c1ccc(OC)cc1C` has an MIC of over 64 µg/mL.
`Cc1ncc(-c2cc(=O)n3nc(C)c(-c4ccc(Cl)cc4)c3[nH]2)c(C)n1` gave an MIC of 2 µg/mL (≈ 5.47 µM).
With `O=C(O[C@H](Cn1ccnc1)c1ccc(Cl)cc1Cl)N1CCN(c2ccc(Cl)c(Cl)c2)CC1` the MIC was 8 µg/mL (≈ 15.6 µM).
With `CCc1c(CN2CCSCC2)cc(-c2ccc(F)cc2)n1-c1ccccc1F` the MIC was 2 µg/mL (≈ 5.02 µM).
With `CC(C)c1ccc(NC(=O)O[C@H](Cn2ccnc2)c2ccc(F)cc2)cc1` the MIC was 16 µg/mL (≈ 43.5 µM).
`COc1ccc(-n2c(-c3ccc(C)cc3)cc(CN3CCSCC3)c2C)cc1` showed an MIC of 1 µg/mL (≈ 2.55 µM).
For `O=C(O[C@H](Cn1ccnc1)c1ccc(F)cc1)N1CCN(C(=O)c2ccco2)CC1`, the MIC was 64 µg/mL (≈ 155 µM).
For `C=CCN1CC(c2nc3ccccc3n2Cc2cccc(Cl)c2)CC1=O` (configuration not stated), the MIC was 32 µg/mL (≈ 87.5 µM).
Work on `O=C(O[C@H](Cn1ccnc1)c1ccc(F)cc1)N1CCN(c2ccc(Cl)cc2)CC1` yielded an MIC of 16 µg/mL (≈ 37.3 µM).
For `O=C(O[C@H](Cn1ccnc1)c1ccc(F)cc1)N1CCN(c2ccc(Cl)c(Cl)c2)CC1`, the MIC was 16 µg/mL (≈ 34.5 µM).
Molecule `Cc1cccc(-c2nn3c(=O)cc(CCc4c(C)n[nH]c4C)[nH]c3c2C)c1` has an MIC of 64 µg/mL (≈ 177 µM).
In the case of `Fc1ccc([C@H](c2cn(-c3ccccc3)nn2)n2ccnc2)cc1`, the MIC is reported as 32 µg/mL (≈ 100 µM).
`Cc1cc(/C=N\OCc2ccccc2)c(C)n1-c1ccc(F)cc1` showed an MIC of 25 µg/mL (≈ 77.5 µM).
`CC1=NN(c2ccc(Cl)cc2)C(=O)/C1=C\N1CCN(C)CC1` showed an MIC of 64 µg/mL (≈ 201 µM).
`O=C1NN(c2ccc(Cl)cc2)C(=O)/C1=C/c1ccc(Cl)cc1Cl` showed an MIC of 32 µg/mL (≈ 87 µM).
`O=C(OC(Cn1ccnc1)c1ccc(Cl)cc1)N1CCN(c2ccc([N+](=O)[O-])cc2)CC1` (racemic) showed an MIC of 16 µg/mL (≈ 35.1 µM).
`O=C(c1ccc(Cl)cc1)c1c(-c2ccccc2)[nH]n(-c2ccc(Cl)cc2)c1=O` gave an MIC of 16 µg/mL (≈ 39.1 µM).
`CCc1c(CN2CCSCC2)cc(-c2ccccc2)n1-c1ccc(F)cc1` gave an MIC of 2 µg/mL (≈ 5.26 µM).
For `O=C(c1ccc(Cl)cc1)c1c(C(F)(F)F)[nH]n(-c2ccccc2)c1=O`, the MIC was over 64 µg/mL.
`CSc1ccc(-c2cc(CN3CCSCC3)c(C)n2-c2ccc(F)cc2)cc1` gave an MIC of under 0.125 µg/mL.
Molecule `Cc1ccc(-n2nc(C)c(C(=O)c3ccc(Cl)cc3)c2O)cc1` has an MIC of 16 µg/mL (≈ 49 µM).
In the case of `Cc1c(C(=O)c2ccc(Cl)cc2)c(=O)n(-c2ccc(Cl)cc2)n1Cc1ccc([N+](=O)[O-])cc1`, the MIC is reported as 32 µg/mL (≈ 66.3 µM).
With `Cc1cc(/C=N\OCc2ccc(Cl)cc2)c(C)n1-c1ccc(F)cc1` the MIC was 50 µg/mL (≈ 140 µM).
For `CC1=NN(c2ccc(Cl)cc2)C(=O)/C1=C\N1CCNCC1C(=O)c1ccco1` (configuration not stated), the MIC was 32 µg/mL (≈ 80.2 µM).
With `O=C(O[C@H](Cn1ccnc1)c1ccc(Cl)cc1)N1CCN(c2ccc(Cl)cc2)CC1` the MIC was 16 µg/mL (≈ 35.9 µM).
For `CC(=O)N1CCN(/C=C2\C(=O)N(c3ccc(Cl)cc3)N=C2C)CC1`, the MIC was 64 µg/mL (≈ 185 µM).
In the case of `O=C(CSc1nc2cc(Cl)ccc2s1)c1ccc(Cl)cc1`, the MIC is reported as 32 µg/mL (≈ 90.3 µM).
For `Cc1cc(/C=N\OCc2ccccc2)c(C)n1-c1ccccc1`, the MIC was over 100 µg/mL.
With `Cc1c(-c2cccc(Cl)c2)nn2c(=O)cc(CCCN3CCOCC3)[nH]c12` the MIC was 32 µg/mL (≈ 82.7 µM).
